Assay results as given in patent US7763594B2, “Compositions for the treatment of osteoarthritis and to nourish the synovial fluid” (Bioiberica, S.A., priority 2005, dated 2010).

Key:
[1] = tested on: metalloprotease activity (MMP-1-2-3-12-13); assay: Inhibition of metalloprotease activity in IL-1β-stimulated human arthrosic chondrocytes (FRET substrate); assay type: cell-based; conditions: 24 hours preincubation, then 100 U/ml IL-1β for 24 hours; significance p<0.05
Experimental: Solutions were prepared with the two compositions of the invention. One of them contained 160 μg/ml of hyaluronic acid and 40 μg/ml of dermatan sulphate, and was compared to hyaluronic acid at a concentration of 160 μg/ml and to dermatan sulphate at a concentration of 40 μg/ml. The other composition contained 800 μg/ml of hyaluronic acid and 200 μg/ml of dermatan sulphate and was compared to hyaluronic acid at a concentration of 800 μg/ml and to dermatan sulphate at a concentration of 200 μg/ml. The chondrocytes were isolated from cartilage pieces (from knee or hip) from […] advanced osteoarthritis, by sequential enzymatic digestion: 1 hour with hyaluronidase (0.1 mg/ml), followed by 10 hours with collagenase (type IA, 2 mg/ml) at 37° C. in DMEM/Ham's F12 medium plus penicillin (100 U/ml) and streptomycin (100 μg/ml) in a controlled CO2 atmosphere. […] Cell viability was determined by the Trypan blue exclusion method, which was in excess of 95%. […] Subsequently, supernatants were transferred to a 96-well plaque for fluorescence analysis and the FRET substrate (QXLTM 520) was added for MMP-1-2-3-12-13. The plaque was shaked and fluorescence measured a different times with excitation and emission wavelengths set at 490 nm and 520 nm, respectively. […] Means and standard errors were calculated, and an analysis of variance and Dunnett's t-test were performed. […]

[2] = tested on: human osteoarthritic synoviocytes; assay: Production of endogenous hyaluronic acid by human synoviocytes (ELISA of culture supernatant); assay type: cell-based
Experimental: The composition of the invention, the HA extraction and the HA fermentation were separately incubated with synoviocytes for 12 and 24-hour periods. The following concentrations were used, both of the composition of the invention and of the hyaluronic acids: 10 μg/ml, 100 μg/ml and 200 μg/ml.
Synovial tissues were obtained from three osteoarthritic joints.
Synovial tissue was introduced into a sterile vial with DMEM (Dulbecco's Modification of Eagle's Medium) (2%), penicillin (150 U/ml), streptomycin ([…]) and amphotericin B (2 μg/ml), and then placed in a refrigerator (temperature: 0-4° C.) for transferral to the cell culture area. The synovial tissue was diced into fragments approximately sized to 2×2×2 mm^3. The fragments were washed three times in culture medium (RPMI 2% P/S/A). 20 ml of culture medium with 10% trypsin was added, and then incubated in a water bath at 37° C. for 10-15 minutes. Subsequently, the synovium was digested with 25 ml of collagenase solution [2 mg/ml type II collagenase; 5% fetal calf serum (FCS); 2% P/S/A; 1% L-glutamine; and deoxyribonuclease I 0.1 mg/ml or 150 U/l in RPMI]. The vial was introduced into a rotary shaker at 37° C. for approximately 2-4 hours. The cells were strained through a nylon filter with 25 μm diameter pores. A cell count was conducted and the cells were grown to a density of 5,000 to 10,000 cell/cm^2 in culture bottles of 25 or 75 cm^2 surface. The culture medium used was RPM supplemented with 10% FCS, 1% P/S and 1% L-glutamine. The synoviocytes used in the experiments were all from passages 2-3.
Following a 24-hour period culture, the synoviocytes (100,000 cells per well in a 24-well plate with 250 μl of medium) were stimulated using the composition of the invention, the HA extraction and the HA fermentation for 12 and 24-hour periods. Then, the supernatant of the different wells was harvested. The endogenous hyaluronic acid content was measured using an ELISA (Corgenix Inc. USA).
Results are shown as the average of 9 individual experiments performed on the cultures. Results are expressed as averages±S.D. and S.E. The statistical analysis was done using a two-tailed unpaired Student's T-test. A statistical difference is considered significant when p<0.05.

| Substance | reduction of metalloprotease activity (in words) [1] | level of endogenous hyaluronic acid in supernatant ([2]; 12-hour period, 100 μg/ml) | level of endogenous hyaluronic acid in supernatant ([2]; 24-hour period, 100 μg/ml) | level of endogenous hyaluronic acid in supernatant ([2]; 24-hour period, 200 μg/ml) | level of endogenous hyaluronic acid in supernatant ([2]; 12-hour period, 200 μg/ml) |
| --- | --- | --- | --- | --- | --- |
| dermatan sulphate | reduction of metalloprotease activity, albeit not at a statistically significant level | – | – | – | – |
| hyaluronic acid [HA extraction] | – | 25,762 ng/ml | 27,634 ng/ml | 91,538 ng/ml | – |
| hyaluronic acid [hyaluronic acid (HA)] | reduction of metalloprotease activity, albeit not at a statistically significant level | – | – | – | – |
| sodium hyaluronate [HA fermentation] | – | 9,724 ng/ml | 15,706 ng/ml | 72,594 ng/ml | 62,618 ng/ml |
